Measurements published in patent US20100256206A1, “CRYSTALLINE FORM B OF OLMESARTAN MEDOXOMIL” (priority 2007, published 2010).

Columns and labels:
[1] = DSC and XRPD experiments, polymorphic transition; assay type: physicochemical
Description: The X-ray powder diffraction data was obtained by methods known in the art using a Bruker D8 Advance Powder Diffractometer with scintillation detector under the following parameters: Reflection mode Cu Kα radiation (1.5406 Å) Scanning range: 2-50 °2θ Step size: 0.02 °2θ Time per step: 2 s The powder obtained by the process according to the invention as described above and in the following examples was also subjected to Differential Scanning Calorimetry (DSC). The DSC thermal analysis data was obtained using a Mettler-Toledo DSC821e apparatus under the following parameters: • Temperature profile: 25-300° C. @ 5° C./min • Nitrogen purge gas, 50 ml/min • Aluminium pan, […], pierced prior to scan The powder obtained by the process according to the invention as described above and in the following examples was also subjected to Thermo-Gravimetric Analysis (TGA). […] Indeed, the DSC and XRPD experiments indicate that no polymorphic transition of crystalline form B occurs up to temperatures of ca. 170° C.

[2] = Thermo-Gravimetric Analysis (TGA) of the powder; assay type: physicochemical; conditions: at processing temperatures and storage temperatures; TGA 25-300° C. @ 5° C./min
Description: The powder obtained by the process according to the invention as described above and in the following examples was also subjected to Thermo-Gravimetric Analysis (TGA). […] Indeed, the DSC and XRPD experiments indicate that no polymorphic transition of crystalline form B occurs up to temperatures of ca. 170° C.
The TGA analysis data was obtained using a Mettler-Toledo TGA851e apparatus under the following parameters:
Temperature profile: 25-300° C. @ 5° C./min
Nitrogen purge gas, 50 ml/min
Aluminium pan, […], pierced prior to scan

[3] = cited from earlier work

| temperature up to which no polymorphic transition occurs [1] | chemical stability, degradation by conversion to other polymorphic forms [2] | Structure (SMILES) | aqueous solubility [3] |
| --- | --- | --- | --- |
| ca. 170 °C | chemically stable | CCCc1nc(C(C)(C)O)c(C(=O)OCc2oc(=O)oc2C)n1Cc1ccc(-c2ccccc2-c2nnn[nH]2)cc1 [crystalline form B, 2,3-dihydroxy-2-butenyl 4-(1-hydroxy-1-methylethyl)-2-propyl-1-[p-(o-tetrazol-5-yl-phenyl)benzyl]imidazole-5-carboxylate cyclic 2,3-carbonate] | – |
| – | – | CCCc1nc(C(C)(C)O)c(C(=O)OCc2oc(=O)oc2C)n1Cc1ccc(-c2ccccc2-c2nnn[nH]2)cc1 [Olmesartan medoxomil, 2,3-dihydroxy-2-butenyl 4-(1-hydroxy-1-methylethyl)-2-propyl-1-[p-(o-tetrazol-5-yl-phenyl)benzyl]imidazole-5-carboxylate cyclic 2,3-carbonate] | very low |
